Assay results reported in patent US12491145B2, “Synthesis and purification of cannabigerol and its application” (SYMRISE AG, priority 2019, dated 2025).

How the values were obtained:
B16 melanoma cells = experiment: Determination of melanin content in B16 cells; format: cell-based, mouse
Description: (§1) Cell Culture. The cell line B16 (mouse melanocytes, obtained from ATCC and part of SimDerma platform) was maintained in supplemented DMEM medium containing 10% FBS and 1% antibiotics penicillin/streptomycin (DMEM complete medium) at 37° C. in a humidified atmosphere of 5% CO2.
(§2) Determination of Melanin Content and Cytotoxicity in B16 cells: To analyse the effect of cannabigerol (1) on melanogenesis, B16 melanoma cells were used as a cellular assay system to evaluate the depigmenting activity in cell cultures. B16 cells (4A5) were treated for 3 days with several doses of the compounds (cannabigerol (1) or kojic acid). The cells were washed with phosphate buffer saline (PBS) at the end of the treatment and dissolved in 1 N NaOH containing 10% DMSO for 1 h at 60° C. The absorbance at 405/490 nm was measured (TriStar LB 941 Berthold Technologies, GmbH & Co. KG) and the melanin content quantified with a reference standard of synthetic melanin (Sigma-Aldrich, St Louis, Mo., USA). Cytotoxicity was measured in parallel by the MTT assay to discard that melanin inhibition is not masked by cytotoxicity. Kojic acid was used as a positive control.

B16 cells = format: cell-based, mouse
Description: as §2

tyrosinase = biological target: T1, tyrosinase (Mus musculus, UniProt P11344); experiment: Measurement of tyrosinase activity in lysates of treated B16 cells (L-dopa, dopachrome formation, 475 nm); format: cell-based
T1 construct: host or cells: B16 mouse melanocytes (melanoma line)
T1 sequence (P11344 19-533): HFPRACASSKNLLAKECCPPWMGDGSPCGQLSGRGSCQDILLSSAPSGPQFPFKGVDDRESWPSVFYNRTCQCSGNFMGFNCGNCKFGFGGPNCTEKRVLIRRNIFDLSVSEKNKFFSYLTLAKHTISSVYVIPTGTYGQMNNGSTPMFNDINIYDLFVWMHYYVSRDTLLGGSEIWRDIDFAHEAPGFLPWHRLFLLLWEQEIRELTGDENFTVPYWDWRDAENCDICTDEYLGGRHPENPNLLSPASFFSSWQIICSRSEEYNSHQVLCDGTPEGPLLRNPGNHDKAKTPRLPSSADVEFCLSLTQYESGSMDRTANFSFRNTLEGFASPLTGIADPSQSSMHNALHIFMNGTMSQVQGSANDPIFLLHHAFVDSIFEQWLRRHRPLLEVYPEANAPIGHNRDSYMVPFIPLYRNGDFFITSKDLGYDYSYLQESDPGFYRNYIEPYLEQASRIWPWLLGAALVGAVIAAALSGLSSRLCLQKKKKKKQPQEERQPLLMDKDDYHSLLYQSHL
Description: as §1
Measurements of Tyrosinase Activity: To measure the tyrosinase activity of the cells, B16 cells were treated for 3 days with several doses of the compounds (cannabigerol (1) or kojic acid), then lysed by incubation at 4° C. for 30 min in lysis buffer (20 mM sodium phosphate, pH 6.8, 1% Triton X-100, 1 mM PMSF, 1 mM EDTA) containing protease inhibitors cocktail. The lysates were centrifuged at 15.000 g for 10 min to obtain the supernatant as the source of tyrosinase. The reaction mixture contained 20 mM phosphate buffer, pH 6.8, 1.25 mM L-dopa (Sigma-Aldrich). After incubation at 37° C. for 30 min, dopachrome formation was monitored by measuring absorbance at a wavelength of 475 nm in a microplate reader (TriStar LB 941 Berthold Technologies, GmbH & Co. KG). Kojic acid was used as a positive control.

Row | Compound | reduction of melanin production (B16 melanoma cells; 2 mM, B16 cells, 3 days) | cytotoxic effects (B16 cells) | inhibition of tyrosinase compared with positive control (tyrosinase; 1 μg/ml cannabigerol vs 2 mM kojic acid, B16 cells, 3 days) | doses at which tyrosinase activity was inhibited (tyrosinase; B16 cells treated for 3 days) [µg/mL] | inhibition compared with reference inhibitor in the used test systems (tyrosinase activity, melanin production; FIG. 2 and 3) (tyrosinase; B16 melanocytes) | melanin production, dose dependence (B16 melanoma cells) | inhibition at 1 µg/mL (B16 melanoma cells; Mus musculus, B16, 72 h, read-out: inhibition of melanin production) [%]
1 | O=c1cc(CO)occ1O [kojic acid, reference compound] | approx. 20% | – | – | – | – | – | –
2 | CCCCCc1cc(O)c(C/C=C(\C)CCC=C(C)C)c(O)c1 [Cannabigerol (1), Cannabigerol] | – | no cytotoxic effects | as potent as the effect of 2 mM of kojic acid | ≥ 0.5 | stronger inhibition than the used reference inhibitor kojic acid | dose dependently prevented | ~30
